The results in this text go back to patent publication US20110251143A1, “STABLE ELSAMITRUCIN SALT FORMULATIONS” (Spectrum Pharmaceuticals, Inc., priority 2007, published 2011).

What is called IC50 is the concentration that inhibits the measured activity by half. Read a low IC50 as higher potency. In general, solubility refers to the concentration that dissolves in the medium under given conditions.

The test system of data set [1] is B16F10 murine melanoma cells. In words: MTT cell growth inhibition, B16F10. It is filed as cell-based. As to conditions: 5-10 days. How it is done: (§1) The following experiment confirms that the elsamitrucin salts made in accordance with the teachings of the present disclosure retain their in vitro anti-neoplastic activity when compared to elsamitrucin base. Elsamitrucin and elsamitrucin tosylate were tested in vitro using: B16F10 (murine […]), HCT 116 (human colon), HT29 (human colon) and SK-MES-1 (human non-small cell lung carcinoma). Cell growth inhibition was evaluated in 96-well micro-culture plates with a semi-automated MTT (3-(4,5-dimethylthiazol-2-yl)-2,5-diphenyltetrazolium bromide) assay. […]
(§2) Cell culture plates seeded with test cells and various concentrations of elsamitrucin solutions were placed in a humidified incubator at 37° C., with CO2 and 95% air for 5-10 days. […] Absorbance was monitored at a wavelength of 595 nm, and at a reference wavelength of 650 nm, using a TECAN® GENios mocroplate reader. In all experiments, absorbance data was acquired for each agent at two overlapping concentration ranges. […]
(§3) The results of each test were stored and imported into PRISM® 3.03 for graphical analysis and determination of IC50 values. All results were graphed as a percentage of controlled absorbance versus the drug concentration. […]

The nature of data set [2]: solubility of the p-TSA salt checked by HPLC. It counts as physicochemical. As to conditions: for solubility at pH 4 / Concentration (mg/mL) / solubility in water / Concentration: HPLC; for solubility in water / Concentration: slurry stirred at room temperature for six hours. The source says:
The solubility of the p-TSA salt in water was checked by HPLC after stirring the slurry at room temperature for six hours.

In data set [3] the test system is HCT 116 human colon carcinoma. In words: MTT cell growth inhibition, HCT 116. It counts as cell-based. As to conditions: HCT 116, MTT, 5-10 days. How it is done:
as §1, §2, §3

In data set [4] the test system is SK-MES-1 human non-small cell lung carcinoma. In words: MTT cell growth inhibition, SK-MES-1. It counts as cell-based. Particulars: SK-MES-1, MTT, 5-10 days. How it is done:
as §1, §2, §3

Data set [5] deals with HT29 human colon carcinoma. As to the kind of experiment: MTT cell growth inhibition, HT29. It is filed as cell-based. Particulars: 5-10 days. The protocol:
as §1, §2, §3

Data set [6] is described as follows: solid state stability, drying at elevated temperatures (NMR). It counts as physicochemical. Particulars: vacuum oven 75° C. nine hours; 98° C. overnight; NMR 1:1 salt ratio. The protocol:
(§4) Elsamitrucin salts made in accordance with the teachings of the present disclosure were tested for stability. Two samples of the isolated p-TSA salt (40 mg each) were placed in a vacuum oven at 75° C. for nine hours. After this exposure, sample #1 was taken out, the temperature was increased to 98° C. and the second sample was dried overnight. […] The weight loss by TGA was approximately 2.5% for both samples. Karl Fischer analysis indicated the two lots still had water present: sample #1 had 4.0% water content and #2 had 4.6%. The p-TSA salt (16 mg) of elsamitrucin was dissolved in 1.6 mL of benzoate buffer (pH 4) and stirred at 50° C. for ten days. Samples for HPLC and MS were taken in 3, 5, and 10 days.

A short description of data set [7]: solution stability in benzoate buffer (HPLC, MS). Particulars: benzoate buffer (pH 4), 50° C., ten days, samples at 3, 5, 10 days. It is filed as physicochemical. How it is done: as §4

As for “elsamitrucin tosylate [Elsamitrucin p-TSA Salt]”, the half-inhibitory concentration (IC50) in data set [1] was found to be 28 nM; in data set [3], 79 nM; in data set [4], 45 nM; in data set [5], 105 nM. Further, the “Vial Concentration” value in data set [2] (pH 4 (benzoate buffer)) is given as 0.01789 M; in data set [2] (water), 0.01891 M. The “solubility at pH 4 / Concentration (mg/mL)” value is listed as 14.7 mg/mL in data set [2] (pH 4 (benzoate buffer)) and 14.78 mg/mL in data set [2] (pH 4 (benzoate buffer), listed as OVL-A-143). Besides, the “solubility in water / Concentration” value in data set [2] (water) was 15.6 mg/mL; in data set [2] (water, listed as OVL-A-137), 15.61 mg/mL. For the same substance, the “decomposition in the solid state during drying” value in data set [6] was “no decomposition”. Further, in data set [7], the decomposition in solution result is listed as “No evidence of the decomposition product”.
